Test results from PMC4156305, “Structure Driven Design of Novel Human Ether-A-Go-Go-Related-Gene Channel (hERG1) Activators” (PLoS ONE, 2014).

molecular target: T1, hERG1 (Homo sapiens, UniProt Q12809); assay: Whole cell patch-clamp of hERG1 currents in transfected HEK 293 cells; format: cell-based; parameters: Inactivation ΔV0.3: unit not given here; details: Conc. 20 µM; deactivation time constant relative to baseline
T1 construct: expressed in transfected cells; host or cells: HEK 293
Protocol: Transfected HEK cells on glass cover slips were placed in a chamber mounted on a modified stage of an inverted microscope. The chamber was superfused at a rate of 2 mL/min with a normal external solution. The extracellular solution contained (in mM) NaCl 140, KCl 5.4, CaCl2 1, MgCl2 1, HEPES 5, glucose 5.5, pH 7.4, with NaOH. Micropipettes were pulled from borosilicate glass capillary tubes on a programmable horizontal puller (Sutter Instruments, Novato, CA). Standard patch-clamp methods were used to measure the whole cell currents of hERG1 mutants expressed in HEK 293 cells using the AXOPATCH 200B amplifier (Axon Instruments). Unless otherwise indicated, tail currents were recorded when the voltage was returned to −50 mV from +50 mV. Further details on electrophysiological methods are collected in Methods S1.
Electrophysiology Protocol:
The pipette solution contained the following (at mM concentration): KCl 10, K-aspartate 110, MgCl2 5, Na2ATP 5, EGTA 10, HEPES 5, and CaCl2 1. The solution was adjusted to pH 7.2 with KOH. The extracellular solution contained the following (at mM concentration): NaCl 140, KCl 5.4, CaCl2 1, MgCl2 1, HEPES 5, and glucose 5.5. The solution was adjusted to pH 7.4 with NaOH. For IKr measurements, the whole cell configuration of the patch clamp method was used. The series resistance was less than 7
MΩ. The data were sampled at 1 kHz. The holding potential was -80 mV. The activation of hERG tail currents was induced by depolarization to a range of potentials from +50 to -100 mV in 10 mV steps for 1 second. This was followed by repolarization to -100 mV for 1 second to record the tail currents.
-100 mV, a -120 mV 1 second pre-pulse was applied to completely close the hERG channels before subsequent depolarization. All of the tail currents reported in this manuscript represent dofetilide-sensitive currents. The inactivation of hERG was measured by a previously reported triple-pulse protocol5, 6. The holding potential was -80 mV. The hERG channel was first depolarized to +50 mV for 1 second. Recovery from inactivation was achieved using a short pulse (a 10 ms hyperpolarization) to -120 mV, followed by the application of test pulses from -100 to 0 mV for 1 second in 10 mV steps.
A voltage of -100 mV was selected because it was on the flat part of the inactivation-voltage relationship. The methods employed are identical to ones previously reported. […]

T1 sequence (Q12809 whole entry): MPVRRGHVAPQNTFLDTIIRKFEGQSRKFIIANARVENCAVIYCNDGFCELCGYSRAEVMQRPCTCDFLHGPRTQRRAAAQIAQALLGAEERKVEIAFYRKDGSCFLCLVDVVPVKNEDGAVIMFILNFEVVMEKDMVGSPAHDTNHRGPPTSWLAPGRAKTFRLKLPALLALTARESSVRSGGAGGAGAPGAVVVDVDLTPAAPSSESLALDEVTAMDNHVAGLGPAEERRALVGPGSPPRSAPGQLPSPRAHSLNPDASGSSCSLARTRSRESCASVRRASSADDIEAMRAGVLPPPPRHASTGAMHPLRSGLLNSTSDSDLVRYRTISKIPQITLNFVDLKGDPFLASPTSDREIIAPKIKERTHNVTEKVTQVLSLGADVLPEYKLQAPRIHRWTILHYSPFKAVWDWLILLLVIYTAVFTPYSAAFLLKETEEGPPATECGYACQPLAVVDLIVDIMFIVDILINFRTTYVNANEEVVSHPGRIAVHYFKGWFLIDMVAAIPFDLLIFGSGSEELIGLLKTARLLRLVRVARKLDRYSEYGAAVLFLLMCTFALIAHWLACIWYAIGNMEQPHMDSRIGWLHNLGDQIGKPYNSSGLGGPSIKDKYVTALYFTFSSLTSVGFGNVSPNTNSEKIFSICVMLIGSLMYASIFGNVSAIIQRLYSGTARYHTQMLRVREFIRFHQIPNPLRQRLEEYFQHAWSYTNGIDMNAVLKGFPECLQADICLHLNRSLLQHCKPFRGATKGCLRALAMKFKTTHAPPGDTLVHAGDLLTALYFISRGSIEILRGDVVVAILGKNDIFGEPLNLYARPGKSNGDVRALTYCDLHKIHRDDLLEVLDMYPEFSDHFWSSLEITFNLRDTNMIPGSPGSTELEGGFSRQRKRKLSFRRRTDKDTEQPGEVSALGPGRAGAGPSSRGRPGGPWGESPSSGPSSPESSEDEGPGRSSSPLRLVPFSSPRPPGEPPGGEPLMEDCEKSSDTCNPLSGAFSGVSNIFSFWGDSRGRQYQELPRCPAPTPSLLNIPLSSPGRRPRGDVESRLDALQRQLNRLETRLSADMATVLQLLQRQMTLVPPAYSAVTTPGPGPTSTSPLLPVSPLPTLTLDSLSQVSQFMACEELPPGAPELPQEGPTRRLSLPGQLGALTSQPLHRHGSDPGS

First: C[C@H](NC(=O)c1ccc([N+](=O)[O-])cc1)C(=O)NC(=O)Nc1cc(C(F)(F)F)ccc1O [Compound 7]
Second: COCOc1ccc(C(F)(F)F)cc1NC(=O)NC(=O)[C@H](C)NC(=O)c1ccc([N+](=O)[O-])cc1 [Compound 12]
The “Deactivation Δλ/λcon” value of the first is higher: 0.6±0.3 for the first, −0.1±0.1 for the second.

`COCOc1ccc(C(F)(F)F)cc1NC(=O)NC(=O)[C@H](C)NCc1ccc(F)cc1` [Compound 8] and `COCOc1ccc(C(F)(F)F)cc1NC(=O)NC(=O)[C@H](C)NCc1ccc(Br)cc1` [Compound 9] are the same in “Deactivation Δλ/λcon” value: −0.1±0.04 for the first, −0.1±0.1 for the second.

Going from `COCOc1ccc(C(F)(F)F)cc1NC(=O)NC(=O)[C@H](C)NCc1ccc(C(F)(F)F)cc1` [Compound 10] to `COCOc1ccc(C(F)(F)F)cc1NC(=O)NC(=O)[C@H](C)NC(=O)c1ccccc1` [Compound 11], the “Deactivation Δλ/λcon” value falls from 0.5±0.03 to −0.1±0.2.

same assay, conditions: Conc. 20 µM; shift in voltage-dependence of activation

`C[C@H](NC(=O)c1ccc([N+](=O)[O-])cc1)C(=O)NC(=O)Nc1cc(C(F)(F)F)ccc1O` [Compound 7] and `COCOc1ccc(C(F)(F)F)cc1NC(=O)NC(=O)[C@H](C)NC(=O)c1ccc([N+](=O)[O-])cc1` [Compound 12] are within error of each other in “Activation V1/2 (mV)” value: −7±1.1 mV for the first, −6.3±2.7 mV for the second.

`COCOc1ccc(C(F)(F)F)cc1NC(=O)NC(=O)[C@H](C)NCc1ccc(F)cc1` [Compound 8] and `COCOc1ccc(C(F)(F)F)cc1NC(=O)NC(=O)[C@H](C)NCc1ccc(Br)cc1` [Compound 9] are within error of each other in “Activation V1/2 (mV)” value: −12.5±2.5 mV for the first, −9.1±2.1 mV for the second.

`COCOc1ccc(C(F)(F)F)cc1NC(=O)NC(=O)[C@H](C)NCc1ccc(C(F)(F)F)cc1` [Compound 10] and `COCOc1ccc(C(F)(F)F)cc1NC(=O)NC(=O)[C@H](C)NC(=O)c1ccccc1` [Compound 11] are within error of each other in “Activation V1/2 (mV)” value: −13.7±3.2 mV for the first, −12.7±2.7 mV for the second.

same assay, conditions: Conc. 20 µM; shift in voltage-dependence of inactivation

`C[C@H](NC(=O)c1ccc([N+](=O)[O-])cc1)C(=O)NC(=O)Nc1cc(C(F)(F)F)ccc1O` [Compound 7] and `COCOc1ccc(C(F)(F)F)cc1NC(=O)NC(=O)[C@H](C)NC(=O)c1ccc([N+](=O)[O-])cc1` [Compound 12] are within error of each other in “Inactivation ΔV0.3” value: −3.5±4.5 for the first, −7.3±1.9 for the second.

`COCOc1ccc(C(F)(F)F)cc1NC(=O)NC(=O)[C@H](C)NCc1ccc(F)cc1` [Compound 8] and `COCOc1ccc(C(F)(F)F)cc1NC(=O)NC(=O)[C@H](C)NCc1ccc(Br)cc1` [Compound 9] are within error of each other in “Inactivation ΔV0.3” value: −4±8 for the first, −3.5±1.5 for the second.

First: COCOc1ccc(C(F)(F)F)cc1NC(=O)NC(=O)[C@H](C)NCc1ccc(C(F)(F)F)cc1 [Compound 10]
Second: COCOc1ccc(C(F)(F)F)cc1NC(=O)NC(=O)[C@H](C)NC(=O)c1ccccc1 [Compound 11]
The “Inactivation ΔV0.3” value of the first is lower: −12.3±3.4 for the first, −1.5±1.5 for the second.

same assay, conditions: Conc. 20 µM; tail current relative to baseline

`C[C@H](NC(=O)c1ccc([N+](=O)[O-])cc1)C(=O)NC(=O)Nc1cc(C(F)(F)F)ccc1O` [Compound 7] and `COCOc1ccc(C(F)(F)F)cc1NC(=O)NC(=O)[C@H](C)NC(=O)c1ccc([N+](=O)[O-])cc1` [Compound 12] are the same in “Amplitude I/Icon” value: 0.6±0.1 for the first, 0.6±0.19 for the second.

First: COCOc1ccc(C(F)(F)F)cc1NC(=O)NC(=O)[C@H](C)NCc1ccc(F)cc1 [Compound 8]
Second: COCOc1ccc(C(F)(F)F)cc1NC(=O)NC(=O)[C@H](C)NCc1ccc(Br)cc1 [Compound 9]
The “Amplitude I/Icon” value of the first is lower: 0.1±0.0 for the first, 0.5±0.1 for the second.

First: COCOc1ccc(C(F)(F)F)cc1NC(=O)NC(=O)[C@H](C)NCc1ccc(C(F)(F)F)cc1 [Compound 10]
Second: COCOc1ccc(C(F)(F)F)cc1NC(=O)NC(=O)[C@H](C)NC(=O)c1ccccc1 [Compound 11]
The “Amplitude I/Icon” value of the first is lower: 0.4±0.02 for the first, 0.6±0.04 for the second.

same assay, conditions: Conc. 50 µM; deactivation time constant relative to baseline

`CN(C(=O)c1cccc(C(F)(F)F)c1)c1ccccc1` [Compound 18] and `COCOc1ccc(C(F)(F)F)cc1NC(=O)Oc1ccccc1` [Compound 22] are the same in “Deactivation Δλ/λcon” value: −0.2±0.05 for the first, −0.2±0.09 for the second.

`COCOc1ccc(C(F)(F)F)cc1NC(N)=O` [Compound 21] and `O=C1NC(=O)c2cc(C(F)(F)F)ccc21` [Compound 23] are within error of each other in “Deactivation Δλ/λcon” value: 0.02±0.1 for the first, 0.2±0.1 for the second.

With `O=C(Nc1ccccc1)C1C(=O)Nc2ccccc21` (centres unmarked) [Compound 24] the “Deactivation Δλ/λcon” value was 0.2±0.2.

same assay, conditions: Conc. 50 µM; shift in voltage-dependence of activation

Going from `CN(C(=O)c1cccc(C(F)(F)F)c1)c1ccccc1` [Compound 18] to `COCOc1ccc(C(F)(F)F)cc1NC(=O)Oc1ccccc1` [Compound 22], the “Activation V1/2 (mV)” value falls from 3.3±0.3 mV to −1.7±2.3 mV.

`COCOc1ccc(C(F)(F)F)cc1NC(N)=O` [Compound 21] and `O=C1NC(=O)c2cc(C(F)(F)F)ccc21` [Compound 23] are within error of each other in “Activation V1/2 (mV)” value: −1.3±2.4 mV for the first, −2.3±1.3 mV for the second.

With `O=C(Nc1ccccc1)C1C(=O)Nc2ccccc21` (centres unmarked) [Compound 24] the “Activation V1/2 (mV)” value was −2.3±0.9 mV.

same assay, conditions: Conc. 50 µM; shift in voltage-dependence of inactivation

First: CN(C(=O)c1cccc(C(F)(F)F)c1)c1ccccc1 [Compound 18]
Second: COCOc1ccc(C(F)(F)F)cc1NC(=O)Oc1ccccc1 [Compound 22]
The “Inactivation ΔV0.3” value of the first is lower: −11.7±7.3 for the first, 0±0 for the second.

`COCOc1ccc(C(F)(F)F)cc1NC(N)=O` [Compound 21] and `O=C1NC(=O)c2cc(C(F)(F)F)ccc21` [Compound 23] are within error of each other in “Inactivation ΔV0.3” value: 0.7±3.7 for the first, −2±1.2 for the second.

`O=C(Nc1ccccc1)C1C(=O)Nc2ccccc21` (centres unmarked) [Compound 24] was tested, and the “Inactivation ΔV0.3” value was 8±0.

same assay, conditions: Conc. 50 µM; tail current relative to baseline

`CN(C(=O)c1cccc(C(F)(F)F)c1)c1ccccc1` [Compound 18] and `COCOc1ccc(C(F)(F)F)cc1NC(=O)Oc1ccccc1` [Compound 22] are within error of each other in “Amplitude I/Icon” value: 0.8±0.07 for the first, 0.9±0.04 for the second.

Going from `COCOc1ccc(C(F)(F)F)cc1NC(N)=O` [Compound 21] to `O=C1NC(=O)c2cc(C(F)(F)F)ccc21` [Compound 23], the “Amplitude I/Icon” value rises from 0.9±0.04 to 1.0±0.01.

`O=C(Nc1ccccc1)C1C(=O)Nc2ccccc21` (centres unmarked) [Compound 24] was tested, and the “Amplitude I/Icon” value was 0.8±0.03.
